From patent US11208412B2 (DAEGU-GYEONGBUK MEDICAL INNOVATION FOUNDATION, priority 2017, dated 2021)

Assays:
Experiment in all cases: Kinase selectivity, DiscoverX scanMAX Kinase assay panel (% control)
Type in all cases: binding
[1] = molecular target: T1, kinases of the scanMAX Kinase assay panel (Homo sapiens, UniProt O95382); settings: ASK2; 1 uM
T1 construct: purchased DiscoverX Co. (contract measurement) scanMAX Kinase assay panel
T1 sequence (O95382 1-1288): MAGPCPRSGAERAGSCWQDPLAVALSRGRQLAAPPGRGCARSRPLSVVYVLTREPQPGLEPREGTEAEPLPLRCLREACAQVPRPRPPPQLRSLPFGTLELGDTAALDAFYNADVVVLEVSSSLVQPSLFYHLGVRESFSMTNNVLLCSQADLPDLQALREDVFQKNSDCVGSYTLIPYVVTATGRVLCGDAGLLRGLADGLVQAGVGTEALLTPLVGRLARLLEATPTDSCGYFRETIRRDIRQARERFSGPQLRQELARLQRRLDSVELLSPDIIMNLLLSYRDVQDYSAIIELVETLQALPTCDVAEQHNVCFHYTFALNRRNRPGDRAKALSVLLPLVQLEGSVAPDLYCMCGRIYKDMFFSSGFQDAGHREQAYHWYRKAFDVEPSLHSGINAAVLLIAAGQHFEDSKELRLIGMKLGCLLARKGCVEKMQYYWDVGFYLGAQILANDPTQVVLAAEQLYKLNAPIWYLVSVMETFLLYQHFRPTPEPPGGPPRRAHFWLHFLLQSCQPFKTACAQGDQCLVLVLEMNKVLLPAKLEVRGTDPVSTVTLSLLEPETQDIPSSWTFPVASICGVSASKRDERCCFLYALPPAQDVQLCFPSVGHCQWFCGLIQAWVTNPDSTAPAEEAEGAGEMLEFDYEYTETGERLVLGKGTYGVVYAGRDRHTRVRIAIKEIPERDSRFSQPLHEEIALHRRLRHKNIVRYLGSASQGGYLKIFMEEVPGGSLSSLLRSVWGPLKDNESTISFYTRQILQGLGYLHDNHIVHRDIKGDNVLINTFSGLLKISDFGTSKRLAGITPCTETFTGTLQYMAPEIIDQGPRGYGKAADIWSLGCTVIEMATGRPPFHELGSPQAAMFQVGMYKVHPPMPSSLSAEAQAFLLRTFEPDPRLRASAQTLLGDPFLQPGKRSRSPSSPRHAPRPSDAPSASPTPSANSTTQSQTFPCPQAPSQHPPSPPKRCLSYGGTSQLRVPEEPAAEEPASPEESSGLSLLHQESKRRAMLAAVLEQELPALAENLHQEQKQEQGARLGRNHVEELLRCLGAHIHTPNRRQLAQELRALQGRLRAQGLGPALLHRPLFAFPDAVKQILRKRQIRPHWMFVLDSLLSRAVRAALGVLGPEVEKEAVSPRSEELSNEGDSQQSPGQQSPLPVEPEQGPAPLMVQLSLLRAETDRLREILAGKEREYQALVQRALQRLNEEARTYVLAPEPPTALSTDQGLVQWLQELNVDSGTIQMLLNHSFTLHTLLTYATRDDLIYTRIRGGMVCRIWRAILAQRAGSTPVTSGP
Method: (§1) The following experiment was performed to evaluate the activity of the compounds of the present invention to inhibit many enzymes.
(§2) Particularly, the compounds of Examples 8, 64 and 104 were selected among all of those compounds of the invention. DiscoverX Co. was asked to measure the enzyme (kinase) selectivity, and the experiment was performed using scanMAX™ Kinase assay panel.
(§3) Wherein, the concentration of the drug treated to each enzyme was 1 uM in DMSO and the control percentage (% control) was determined by the following Equation 1. (example compound−positive control)/(negative control−positive control)×100 [Equation 1]
(§4) Herein, the positive control indicates the compound showing the % control of 0%, and the negative control indicates DMSO showing the % control of 100%. The enzyme selectivity in the present invention is defined as follows: When the % control for each enzyme is less than 35% (<35%), it is judged that the compound has the activity to the corresponding enzyme.

[2] = molecular target: T2, kinases of the scanMAX Kinase assay panel (Homo sapiens, UniProt P07949, M918T); settings: kinase RET(M918T); 1 uM in DMSO
T2 construct: purchased DiscoverX Co. (contract measurement) scanMAX Kinase assay panel
Method: as §1, §2, §3, §4

[3] = molecular target: T3, kinases of the scanMAX Kinase assay panel (Homo sapiens, UniProt P23458); settings: 1 uM
T3 construct: purchased DiscoverX Co. (contract measurement) scanMAX Kinase assay panel
T3 sequence (P23458 whole entry): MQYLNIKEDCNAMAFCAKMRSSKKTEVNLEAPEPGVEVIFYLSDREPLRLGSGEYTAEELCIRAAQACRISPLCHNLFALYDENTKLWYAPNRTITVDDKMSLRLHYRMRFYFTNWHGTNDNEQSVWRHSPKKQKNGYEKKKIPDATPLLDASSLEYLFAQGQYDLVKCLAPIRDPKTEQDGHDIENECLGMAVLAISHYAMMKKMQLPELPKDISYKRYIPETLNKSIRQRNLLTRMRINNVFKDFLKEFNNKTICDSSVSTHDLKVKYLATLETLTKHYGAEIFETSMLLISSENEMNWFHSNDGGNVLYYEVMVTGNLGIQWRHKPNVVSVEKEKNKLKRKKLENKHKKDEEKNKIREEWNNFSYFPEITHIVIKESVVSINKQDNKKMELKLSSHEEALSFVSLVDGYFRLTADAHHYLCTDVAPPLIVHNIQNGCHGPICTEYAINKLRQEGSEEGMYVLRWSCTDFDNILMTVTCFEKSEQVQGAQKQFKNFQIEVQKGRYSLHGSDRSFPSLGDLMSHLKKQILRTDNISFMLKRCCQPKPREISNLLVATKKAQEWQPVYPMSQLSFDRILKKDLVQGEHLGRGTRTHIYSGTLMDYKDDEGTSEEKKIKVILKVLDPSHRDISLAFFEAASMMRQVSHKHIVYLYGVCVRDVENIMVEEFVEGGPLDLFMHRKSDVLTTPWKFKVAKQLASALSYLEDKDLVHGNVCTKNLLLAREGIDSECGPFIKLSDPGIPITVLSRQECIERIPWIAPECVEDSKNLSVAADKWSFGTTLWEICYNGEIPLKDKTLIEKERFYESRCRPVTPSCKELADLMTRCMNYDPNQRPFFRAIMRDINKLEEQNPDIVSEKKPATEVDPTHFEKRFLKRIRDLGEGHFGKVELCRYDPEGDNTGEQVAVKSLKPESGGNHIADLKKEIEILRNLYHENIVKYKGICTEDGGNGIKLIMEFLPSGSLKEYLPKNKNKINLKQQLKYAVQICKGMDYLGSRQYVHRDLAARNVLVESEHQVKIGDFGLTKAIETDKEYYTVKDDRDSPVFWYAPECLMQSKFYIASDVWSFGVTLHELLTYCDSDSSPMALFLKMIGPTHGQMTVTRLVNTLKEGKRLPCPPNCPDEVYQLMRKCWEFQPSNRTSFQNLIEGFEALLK
Method: as §1, §2, §3, §4

[4] = molecular target: T4, kinases of the scanMAX Kinase assay panel (Homo sapiens, UniProt P25098); settings: GRK2; 1 uM
T4 construct: purchased DiscoverX Co. (contract measurement) scanMAX Kinase assay panel
T4 sequence (P25098 1-689): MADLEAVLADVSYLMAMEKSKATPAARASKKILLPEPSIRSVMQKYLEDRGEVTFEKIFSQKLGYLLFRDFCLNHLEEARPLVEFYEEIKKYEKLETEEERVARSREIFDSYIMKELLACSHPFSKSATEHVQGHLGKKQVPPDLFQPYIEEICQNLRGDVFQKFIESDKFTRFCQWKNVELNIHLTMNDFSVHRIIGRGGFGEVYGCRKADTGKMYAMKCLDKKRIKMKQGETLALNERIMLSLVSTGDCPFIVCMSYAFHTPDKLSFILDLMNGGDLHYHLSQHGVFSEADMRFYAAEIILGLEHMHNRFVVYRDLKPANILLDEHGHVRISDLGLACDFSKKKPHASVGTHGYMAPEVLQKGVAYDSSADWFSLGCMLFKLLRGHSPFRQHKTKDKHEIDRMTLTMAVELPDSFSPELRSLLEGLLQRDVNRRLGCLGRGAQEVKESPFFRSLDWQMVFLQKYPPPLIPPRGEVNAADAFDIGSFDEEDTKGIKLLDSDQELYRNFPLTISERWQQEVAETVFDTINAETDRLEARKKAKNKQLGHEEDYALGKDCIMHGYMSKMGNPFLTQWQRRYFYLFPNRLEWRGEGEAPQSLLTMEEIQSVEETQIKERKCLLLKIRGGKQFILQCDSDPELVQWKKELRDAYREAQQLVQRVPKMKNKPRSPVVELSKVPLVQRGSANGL
Method: as §1, §2, §3, §4

[5] = molecular target: T5, kinases of the scanMAX Kinase assay panel (Homo sapiens, UniProt P42336, E545A); settings: PIK3CA(E545A); 1 uM
T5 construct: purchased DiscoverX Co. (contract measurement) scanMAX Kinase assay panel
T5 sequence (P42336 whole entry E545A): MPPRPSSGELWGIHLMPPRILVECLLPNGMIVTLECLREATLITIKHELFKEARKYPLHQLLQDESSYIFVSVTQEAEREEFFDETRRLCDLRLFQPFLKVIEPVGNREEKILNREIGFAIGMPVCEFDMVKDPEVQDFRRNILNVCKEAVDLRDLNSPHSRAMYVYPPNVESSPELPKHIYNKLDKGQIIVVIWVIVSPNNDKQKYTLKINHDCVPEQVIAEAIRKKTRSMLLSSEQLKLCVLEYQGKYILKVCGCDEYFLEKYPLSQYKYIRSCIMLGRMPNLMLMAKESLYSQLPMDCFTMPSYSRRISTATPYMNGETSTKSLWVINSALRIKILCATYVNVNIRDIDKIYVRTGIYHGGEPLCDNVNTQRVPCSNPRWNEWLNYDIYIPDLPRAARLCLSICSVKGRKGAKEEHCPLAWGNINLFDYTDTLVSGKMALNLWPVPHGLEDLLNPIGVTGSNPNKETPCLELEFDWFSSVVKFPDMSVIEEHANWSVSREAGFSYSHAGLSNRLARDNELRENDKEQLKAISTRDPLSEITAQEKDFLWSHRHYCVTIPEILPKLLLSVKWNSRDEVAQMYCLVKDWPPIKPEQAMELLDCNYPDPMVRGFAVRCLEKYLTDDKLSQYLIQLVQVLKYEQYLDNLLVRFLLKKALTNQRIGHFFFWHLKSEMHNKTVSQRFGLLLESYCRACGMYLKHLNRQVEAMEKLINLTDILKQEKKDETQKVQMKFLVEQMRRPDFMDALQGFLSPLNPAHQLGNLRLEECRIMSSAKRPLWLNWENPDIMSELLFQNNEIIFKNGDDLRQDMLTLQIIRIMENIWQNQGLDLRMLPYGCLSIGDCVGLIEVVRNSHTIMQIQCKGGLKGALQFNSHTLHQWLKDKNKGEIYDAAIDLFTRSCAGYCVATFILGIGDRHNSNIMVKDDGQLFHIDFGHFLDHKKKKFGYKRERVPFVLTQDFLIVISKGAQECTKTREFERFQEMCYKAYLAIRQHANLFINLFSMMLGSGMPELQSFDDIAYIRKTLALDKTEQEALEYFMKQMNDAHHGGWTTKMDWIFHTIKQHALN
Method: as §1, §2, §3, §4

[6] = molecular target: T6, kinases of the scanMAX Kinase assay panel (Homo sapiens, UniProt P42338); settings: PIK3CB; 1 uM
T6 construct: purchased DiscoverX Co. (contract measurement) scanMAX Kinase assay panel
T6 sequence (P42338 whole entry): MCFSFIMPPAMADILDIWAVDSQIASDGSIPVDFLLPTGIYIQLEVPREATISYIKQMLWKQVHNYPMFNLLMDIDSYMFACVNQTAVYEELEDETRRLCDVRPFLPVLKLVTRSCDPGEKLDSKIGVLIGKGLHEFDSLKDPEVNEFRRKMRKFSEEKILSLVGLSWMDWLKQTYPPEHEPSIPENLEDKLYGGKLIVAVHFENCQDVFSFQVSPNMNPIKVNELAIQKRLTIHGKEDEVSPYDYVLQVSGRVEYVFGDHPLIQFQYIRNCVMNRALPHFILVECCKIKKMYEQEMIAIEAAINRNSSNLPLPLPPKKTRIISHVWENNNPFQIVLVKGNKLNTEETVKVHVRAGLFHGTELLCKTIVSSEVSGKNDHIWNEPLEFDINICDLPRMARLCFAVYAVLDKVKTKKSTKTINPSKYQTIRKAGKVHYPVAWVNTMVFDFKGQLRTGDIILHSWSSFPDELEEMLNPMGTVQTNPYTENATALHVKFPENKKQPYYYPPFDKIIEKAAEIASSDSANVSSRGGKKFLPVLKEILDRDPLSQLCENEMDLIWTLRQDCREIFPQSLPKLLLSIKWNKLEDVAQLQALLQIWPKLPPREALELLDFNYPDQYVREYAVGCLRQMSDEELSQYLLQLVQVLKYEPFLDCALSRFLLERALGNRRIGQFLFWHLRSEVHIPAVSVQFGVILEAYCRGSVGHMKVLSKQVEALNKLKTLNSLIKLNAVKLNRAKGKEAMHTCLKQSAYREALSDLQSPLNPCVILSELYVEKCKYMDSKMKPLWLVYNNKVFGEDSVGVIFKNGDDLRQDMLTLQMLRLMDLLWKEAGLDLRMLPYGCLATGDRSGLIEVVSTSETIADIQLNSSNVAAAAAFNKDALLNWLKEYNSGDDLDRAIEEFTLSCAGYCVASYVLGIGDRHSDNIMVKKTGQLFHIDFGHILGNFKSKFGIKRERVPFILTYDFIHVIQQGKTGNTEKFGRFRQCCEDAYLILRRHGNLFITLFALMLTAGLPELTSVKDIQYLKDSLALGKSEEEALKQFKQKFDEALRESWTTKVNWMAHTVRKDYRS
Method: as §1, §2, §3, §4

[7] = molecular target: T7, kinases of the scanMAX Kinase assay panel (Homo sapiens, UniProt P42685); settings: FRK; 1 uM
T7 construct: purchased DiscoverX Co. (contract measurement) scanMAX Kinase assay panel
T7 sequence (P42685 whole entry): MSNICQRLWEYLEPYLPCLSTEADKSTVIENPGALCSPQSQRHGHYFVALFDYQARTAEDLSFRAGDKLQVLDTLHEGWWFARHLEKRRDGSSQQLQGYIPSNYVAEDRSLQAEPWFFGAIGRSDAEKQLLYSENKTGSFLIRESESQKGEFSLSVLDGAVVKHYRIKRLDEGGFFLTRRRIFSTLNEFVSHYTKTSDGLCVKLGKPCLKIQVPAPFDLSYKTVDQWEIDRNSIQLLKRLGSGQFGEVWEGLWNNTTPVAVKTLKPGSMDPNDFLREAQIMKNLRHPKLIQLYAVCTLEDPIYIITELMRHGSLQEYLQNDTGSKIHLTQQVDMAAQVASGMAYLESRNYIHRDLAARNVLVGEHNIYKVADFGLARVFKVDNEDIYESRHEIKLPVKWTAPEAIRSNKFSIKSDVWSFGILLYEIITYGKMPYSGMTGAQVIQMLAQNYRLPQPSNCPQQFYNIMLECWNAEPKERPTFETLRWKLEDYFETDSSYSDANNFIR
Method: as §1, §2, §3, §4

[8] = molecular target: T8, kinases of the scanMAX Kinase assay panel (Homo sapiens, UniProt P51451); settings: BLK; 1 uM
T8 construct: purchased DiscoverX Co. (contract measurement) scanMAX Kinase assay panel
T8 sequence (P51451 whole entry): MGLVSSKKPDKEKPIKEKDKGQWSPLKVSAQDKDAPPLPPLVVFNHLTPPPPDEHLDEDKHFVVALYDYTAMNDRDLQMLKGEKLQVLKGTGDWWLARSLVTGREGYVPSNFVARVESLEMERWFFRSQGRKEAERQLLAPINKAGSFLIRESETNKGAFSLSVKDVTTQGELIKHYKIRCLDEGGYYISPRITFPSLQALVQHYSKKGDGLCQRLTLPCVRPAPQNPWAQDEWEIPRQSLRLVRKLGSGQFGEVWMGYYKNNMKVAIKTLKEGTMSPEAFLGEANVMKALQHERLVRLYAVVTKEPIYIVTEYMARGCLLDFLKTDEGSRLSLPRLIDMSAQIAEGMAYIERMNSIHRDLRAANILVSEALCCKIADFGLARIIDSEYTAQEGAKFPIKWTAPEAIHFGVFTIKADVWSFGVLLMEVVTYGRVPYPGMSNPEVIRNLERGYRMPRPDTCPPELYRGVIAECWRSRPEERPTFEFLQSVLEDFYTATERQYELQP
Method: as §1, §2, §3, §4

[9] = molecular target: T9, kinases of the scanMAX Kinase assay panel (Homo sapiens, UniProt Q9UIK4); settings: DAPK2; 1 uM
T9 construct: purchased DiscoverX Co. (contract measurement) scanMAX Kinase assay panel
T9 sequence (Q9UIK4 whole entry): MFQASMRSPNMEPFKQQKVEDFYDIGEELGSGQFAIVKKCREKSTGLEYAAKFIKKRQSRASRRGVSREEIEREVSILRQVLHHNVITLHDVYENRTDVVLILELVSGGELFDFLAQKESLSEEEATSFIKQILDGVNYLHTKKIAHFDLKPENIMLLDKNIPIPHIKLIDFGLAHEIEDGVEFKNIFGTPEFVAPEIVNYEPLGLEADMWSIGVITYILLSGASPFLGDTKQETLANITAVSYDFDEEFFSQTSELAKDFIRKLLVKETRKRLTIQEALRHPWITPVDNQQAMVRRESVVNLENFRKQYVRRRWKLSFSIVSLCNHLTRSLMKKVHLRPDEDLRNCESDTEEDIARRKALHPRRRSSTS
Method: as §1, §2, §3, §4

Compound | remaining binding at 1 µM [1] [%] | remaining binding at 1 µM [2] [%] | remaining binding at 1 µM ([3]; JAK1(JH1domain-catalytic)) [%] | remaining binding at 1 µM ([3]; JAK1(JH2domain-pseudokinase)) [%] | remaining binding at 1 µM [4] [%] | remaining binding at 1 µM [5] [%] | remaining binding at 1 µM [6] [%] | remaining binding at 1 µM [7] [%] | remaining binding at 1 µM [8] [%] | remaining binding at 1 µM [9] [%]
CNc1nc(Nc2ccc(C(=O)N3CCOCC3)cc2OC)nc2[nH]cc(C#N)c12 [Example 1, 2-((2-methoxy-4-(morpholine-4-carbonyl)phenyl)amino)-4-(methylamino)-7H-pyrrolo[2,3-d]pyrimidine-5-carbonitrile] | 56 | 94 | 92 | 14 | 97 | 94 | 96 | 97 | 100 | 11
CC1(Nc2nc(Nc3cnn([C@H]4CCN(C5COC5)C[C@@H]4F)c3Cl)nc3[nH]cc(C#N)c23)CC1 [Example 52, 2-((5-chloro-1-((3S,4S)-3-fluoro-1-(oxetane-3-yl)piperidine-4-yl)-1H-pyrazole-4-yl)amino)((1-methylcyclopropyl)amino)-7H-pyrrolo[2,3-d]pyrimidine-5-carbonitrile] | 11 | 0 | 44 | 0 | 45 | 71 | 100 | 49 | 2.2 | 12
CCNc1nc(Nc2ccc(C(=O)N3CCC(N4CCOCC4)CC3)cc2OC)nc2[nH]cc(C(F)(F)F)c12 [Example 104, (4-((4-(ethylamino)-5-(trifluoromethyl)-7H-pyrrolo[2,3-d]pyrimidine-2-yl)amino)-3-methoxyphenyl)(4-morpholinopiperidine-1-yl)methanone] | 92 | 96 | 100 | 55 | 96 | 90 | 92 | 77 | 100 | 35
